Laboratory results: ChEMBL document CHEMBL1201862, “PubChem BioAssay data set” (2004)
Activity calls are given as the source filed them.

Key:
[1] = biological target: Glucose-6-phosphate 1-dehydrogenase (Homo sapiens, UniProt P11413); assay: human G6PD enzyme inhibitors, dose response, selectivity assay for P. falciparum G6PD inhibitor project, biochemical, fluorescence (AID 504792); assay type: functional
[2] = tested on: BJ; assay: cytotoxicity toward Ras-transformed BJeLR fibroblasts, dose response, cell-based, alamar blue fluorescence, cherrypicked samples (AID 2631); assay type: functional; conditions: Homo sapiens;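 further: confirmatory dose-response assay in RAS-dependent BJ fibroblasts engineered with TERT, LT and ST, with cytotoxicity read by fluorescence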
[3] = biological target: Paired box protein Pax-8 (Homo sapiens, UniProt Q06710); assay: inhibitors of PAX8-driven TPO luciferase reporter, dose response, RMG-I cells, cherry-pick (AID 687027); assay type: functional, cell-based;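 further: luciferase reporter driven by Pax8 target thyroperoxidase promoter measured by SteadyGlo luminescence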
[4] = biological target: SUMO-activating enzyme (Homo sapiens, UniProt Q9UBT2); assay: inhibitors of in vitro SUMOylation cascade, primary screen, biochemical, HTRF, uHTS (AID 2006); assay type: protein-complex assay
[5] = biological target: T1, Histone-lysine N-methyltransferase NSD2 (Homo sapiens, UniProt O96028); assay type: biochemical
T1 sequence (O96028 whole entry): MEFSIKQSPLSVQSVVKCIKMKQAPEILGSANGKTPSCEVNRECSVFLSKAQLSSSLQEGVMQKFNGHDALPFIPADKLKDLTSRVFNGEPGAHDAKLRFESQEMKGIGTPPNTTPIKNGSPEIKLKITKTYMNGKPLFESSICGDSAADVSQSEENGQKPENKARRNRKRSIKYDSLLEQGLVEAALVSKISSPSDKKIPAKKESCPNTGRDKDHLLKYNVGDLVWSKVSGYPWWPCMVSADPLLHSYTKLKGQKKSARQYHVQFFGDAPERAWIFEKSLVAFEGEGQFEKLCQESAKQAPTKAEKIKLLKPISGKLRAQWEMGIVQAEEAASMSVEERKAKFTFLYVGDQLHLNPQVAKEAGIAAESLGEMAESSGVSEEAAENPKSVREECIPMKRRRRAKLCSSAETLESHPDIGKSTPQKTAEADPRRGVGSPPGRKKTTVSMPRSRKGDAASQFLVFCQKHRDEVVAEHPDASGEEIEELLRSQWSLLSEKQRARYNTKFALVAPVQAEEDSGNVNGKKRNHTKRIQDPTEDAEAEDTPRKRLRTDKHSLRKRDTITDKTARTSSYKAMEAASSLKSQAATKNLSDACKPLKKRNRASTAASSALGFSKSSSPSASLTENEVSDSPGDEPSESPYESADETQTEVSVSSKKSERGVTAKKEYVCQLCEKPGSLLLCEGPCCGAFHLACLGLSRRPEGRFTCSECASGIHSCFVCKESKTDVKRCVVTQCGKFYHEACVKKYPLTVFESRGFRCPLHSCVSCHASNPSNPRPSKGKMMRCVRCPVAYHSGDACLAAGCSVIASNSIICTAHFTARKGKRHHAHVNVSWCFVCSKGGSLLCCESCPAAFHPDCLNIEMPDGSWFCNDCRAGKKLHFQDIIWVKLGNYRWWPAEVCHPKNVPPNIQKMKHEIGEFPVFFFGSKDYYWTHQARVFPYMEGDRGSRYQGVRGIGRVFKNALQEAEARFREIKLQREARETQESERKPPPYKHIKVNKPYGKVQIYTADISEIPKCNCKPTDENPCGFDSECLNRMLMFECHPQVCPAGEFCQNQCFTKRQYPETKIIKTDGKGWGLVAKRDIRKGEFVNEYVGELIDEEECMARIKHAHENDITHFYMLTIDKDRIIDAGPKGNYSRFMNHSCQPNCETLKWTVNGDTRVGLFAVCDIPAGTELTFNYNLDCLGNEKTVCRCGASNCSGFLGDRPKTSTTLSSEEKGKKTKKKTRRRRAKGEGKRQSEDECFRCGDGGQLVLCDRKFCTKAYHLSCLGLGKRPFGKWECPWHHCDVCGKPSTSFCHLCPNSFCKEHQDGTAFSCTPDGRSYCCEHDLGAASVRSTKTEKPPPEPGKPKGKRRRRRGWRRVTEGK

SUMO-activating enzyme, sequence (Q9UBE0 whole entry): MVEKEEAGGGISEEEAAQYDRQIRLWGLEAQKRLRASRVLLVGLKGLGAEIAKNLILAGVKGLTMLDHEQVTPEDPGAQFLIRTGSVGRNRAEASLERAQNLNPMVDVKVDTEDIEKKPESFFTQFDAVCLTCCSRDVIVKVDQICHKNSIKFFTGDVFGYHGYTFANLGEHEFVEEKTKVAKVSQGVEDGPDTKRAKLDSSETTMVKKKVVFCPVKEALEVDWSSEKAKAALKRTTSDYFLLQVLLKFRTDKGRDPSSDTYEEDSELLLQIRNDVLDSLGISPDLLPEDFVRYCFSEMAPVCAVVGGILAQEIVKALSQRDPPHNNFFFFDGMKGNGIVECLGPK
SUMO-activating enzyme, sequence (Q9UBT2 whole entry): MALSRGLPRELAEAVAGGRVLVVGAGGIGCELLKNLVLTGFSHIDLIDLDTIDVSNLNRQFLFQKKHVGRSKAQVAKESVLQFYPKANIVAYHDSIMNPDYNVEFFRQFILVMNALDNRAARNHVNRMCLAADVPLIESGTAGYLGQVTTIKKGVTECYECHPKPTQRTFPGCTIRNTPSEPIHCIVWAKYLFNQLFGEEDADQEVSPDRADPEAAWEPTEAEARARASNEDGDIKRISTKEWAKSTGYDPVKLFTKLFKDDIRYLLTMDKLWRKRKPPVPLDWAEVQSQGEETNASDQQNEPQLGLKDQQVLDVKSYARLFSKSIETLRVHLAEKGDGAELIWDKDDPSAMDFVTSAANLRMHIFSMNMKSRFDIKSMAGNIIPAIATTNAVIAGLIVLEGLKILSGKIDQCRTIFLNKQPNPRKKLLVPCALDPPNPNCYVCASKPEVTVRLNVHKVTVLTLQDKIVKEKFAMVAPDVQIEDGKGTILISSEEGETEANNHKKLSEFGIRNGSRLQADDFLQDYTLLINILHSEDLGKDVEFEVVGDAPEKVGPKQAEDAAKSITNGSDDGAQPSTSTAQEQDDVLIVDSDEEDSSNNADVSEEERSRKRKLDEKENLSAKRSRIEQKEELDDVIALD
Paired box protein Pax-8, sequence (Q06710 whole entry): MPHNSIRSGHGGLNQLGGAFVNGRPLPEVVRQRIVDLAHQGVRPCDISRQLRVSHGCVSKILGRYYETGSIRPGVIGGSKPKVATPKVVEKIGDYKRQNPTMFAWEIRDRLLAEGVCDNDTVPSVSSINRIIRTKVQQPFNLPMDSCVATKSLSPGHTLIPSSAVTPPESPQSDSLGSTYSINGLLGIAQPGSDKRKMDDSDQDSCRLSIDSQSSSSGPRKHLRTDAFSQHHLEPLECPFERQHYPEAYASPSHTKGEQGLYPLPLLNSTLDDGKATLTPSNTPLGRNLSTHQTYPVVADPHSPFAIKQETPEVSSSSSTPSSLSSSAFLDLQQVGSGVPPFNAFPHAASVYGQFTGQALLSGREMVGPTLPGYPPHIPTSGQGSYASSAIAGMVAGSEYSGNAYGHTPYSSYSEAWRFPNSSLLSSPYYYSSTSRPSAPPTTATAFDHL
Glucose-6-phosphate 1-dehydrogenase, sequence (P11413 whole entry): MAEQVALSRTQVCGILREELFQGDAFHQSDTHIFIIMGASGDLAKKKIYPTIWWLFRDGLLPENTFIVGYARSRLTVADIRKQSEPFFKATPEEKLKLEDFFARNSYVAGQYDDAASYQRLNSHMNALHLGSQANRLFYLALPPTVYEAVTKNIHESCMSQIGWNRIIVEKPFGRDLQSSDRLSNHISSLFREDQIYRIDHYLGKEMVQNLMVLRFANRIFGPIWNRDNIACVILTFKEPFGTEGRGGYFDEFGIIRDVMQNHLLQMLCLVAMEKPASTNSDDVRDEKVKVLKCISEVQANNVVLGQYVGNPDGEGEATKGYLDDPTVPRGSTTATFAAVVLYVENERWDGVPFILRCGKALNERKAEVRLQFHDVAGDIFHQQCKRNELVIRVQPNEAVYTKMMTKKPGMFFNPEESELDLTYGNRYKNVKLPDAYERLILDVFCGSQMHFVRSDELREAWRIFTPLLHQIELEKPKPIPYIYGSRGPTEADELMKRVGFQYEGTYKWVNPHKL

Row | SMILES | IC50 [1] | EC50 [2] | AC50 [3] | IC50 [4] | AC50 [5]
1 | COc1ccc(S(=O)(=O)/N=C2\C=C(Nc3ccc(O)cc3)C(=O)c3ccccc32)cc1 | > 80 µM (inactive) | 507 nM (inconclusive) | 1.86 µM (active) | – | –
2 | COc1ccc(/C=N/Nc2cc(N3CCCC3)nc(N3CCCC3)n2)cc1 | – | – | – | 2.31 µM (active) | 2.01 µM (active)
